From publication PMC2725291, “Genetic and Molecular Basis of Individual Differences in Human Umami Taste Perception” (PLoS ONE, 2009)

Biological target: T1, TAS1R1-372A and TAS1R3-757R (Homo sapiens, UniProt Q7RTX0+Q7RTX1, C757R)
T1 construct: expressed in transfected cells; host or cells: HEK293
T1 sequence (Q7RTX1 21-841): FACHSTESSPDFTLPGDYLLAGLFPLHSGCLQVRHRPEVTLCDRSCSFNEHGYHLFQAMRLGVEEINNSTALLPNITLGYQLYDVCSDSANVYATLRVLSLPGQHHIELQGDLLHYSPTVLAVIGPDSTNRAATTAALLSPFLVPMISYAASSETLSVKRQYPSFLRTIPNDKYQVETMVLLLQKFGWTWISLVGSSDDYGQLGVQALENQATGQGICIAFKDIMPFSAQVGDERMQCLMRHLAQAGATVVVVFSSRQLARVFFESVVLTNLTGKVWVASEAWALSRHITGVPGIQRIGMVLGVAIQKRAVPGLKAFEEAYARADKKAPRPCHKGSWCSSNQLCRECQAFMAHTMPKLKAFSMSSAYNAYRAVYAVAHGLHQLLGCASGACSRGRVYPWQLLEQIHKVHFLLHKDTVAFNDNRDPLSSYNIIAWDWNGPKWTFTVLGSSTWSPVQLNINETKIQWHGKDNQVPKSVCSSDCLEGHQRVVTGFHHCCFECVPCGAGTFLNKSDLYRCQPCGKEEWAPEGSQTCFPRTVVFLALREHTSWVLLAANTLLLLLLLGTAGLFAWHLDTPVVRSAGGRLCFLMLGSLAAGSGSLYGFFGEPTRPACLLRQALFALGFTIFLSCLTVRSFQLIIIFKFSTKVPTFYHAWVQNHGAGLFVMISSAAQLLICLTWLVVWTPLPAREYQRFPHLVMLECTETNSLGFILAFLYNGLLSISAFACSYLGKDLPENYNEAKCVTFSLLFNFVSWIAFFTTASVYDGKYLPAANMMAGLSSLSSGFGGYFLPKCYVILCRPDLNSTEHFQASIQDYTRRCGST
T1 sequence (Q7RTX0 21-852 C757R): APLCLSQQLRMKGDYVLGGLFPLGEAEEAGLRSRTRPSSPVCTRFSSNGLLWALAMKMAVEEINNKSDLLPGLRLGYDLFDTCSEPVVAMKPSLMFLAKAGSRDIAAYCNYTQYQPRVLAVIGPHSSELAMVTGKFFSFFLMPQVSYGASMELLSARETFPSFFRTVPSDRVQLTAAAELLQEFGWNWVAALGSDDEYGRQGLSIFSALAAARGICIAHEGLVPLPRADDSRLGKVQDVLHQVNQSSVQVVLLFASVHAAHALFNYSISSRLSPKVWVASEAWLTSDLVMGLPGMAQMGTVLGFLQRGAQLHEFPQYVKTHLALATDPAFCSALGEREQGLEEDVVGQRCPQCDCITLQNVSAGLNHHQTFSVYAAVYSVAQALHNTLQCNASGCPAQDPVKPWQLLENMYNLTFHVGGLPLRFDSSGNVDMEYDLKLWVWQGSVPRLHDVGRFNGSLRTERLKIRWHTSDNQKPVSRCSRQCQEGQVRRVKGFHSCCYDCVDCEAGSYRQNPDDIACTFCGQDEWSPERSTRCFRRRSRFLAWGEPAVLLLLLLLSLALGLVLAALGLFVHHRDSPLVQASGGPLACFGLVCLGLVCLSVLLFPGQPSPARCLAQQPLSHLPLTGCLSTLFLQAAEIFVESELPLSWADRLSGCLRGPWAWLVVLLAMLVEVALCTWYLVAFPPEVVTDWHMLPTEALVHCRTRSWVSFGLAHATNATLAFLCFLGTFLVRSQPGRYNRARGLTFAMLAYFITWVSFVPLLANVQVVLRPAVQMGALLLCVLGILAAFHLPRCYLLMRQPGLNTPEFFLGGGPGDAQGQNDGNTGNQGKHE
Experiment: Ca2+ imaging (bath perfusion) in HEK cells transfected with TAS1R1-372A, TAS1R3-757R and Gα16-i3
Type: cell-based
Conditions: 5∼100 mM
Procedure: HEK293 cells were cultured at 37°C under a humidified atmosphere containing 5% CO2 in Dulbecco's modified Eagle's medium supplemented with 10% fetal bovine serum. To obtain reproducible Ca^2+ responses, cells were split every 2 days before cells become confluent. Cells were discarded after 2 months of passages and new cells were prepared from frozen-stock. For calcium imaging experiments, cells were seeded onto a 35 mm recording chamber or poly-D-lysine coated 96-well black-wall, clear-bottom recording plates. After 24 hrs at 37°C, confluent cells (60∼70%) were washed in OptiMEM medium supplemented with GlutaMAX-I (invitrogen) and plasmid DNAs were transiently cotransfected into HEK293 cells using Lipofectamine2000 regent (invitrogen) (2.0 µl per 1.0 µg DNA). TAS1Rs (or their mutants) and Gαl6-i3 were transfected using 1.5 and 1.0 µg of plasmid for 35 mm recording chambers, 0.09 and 0.06 µg of plasmid per well for 96-well plates, respectively. […] Immuno staining and Ca^2+ imaging assays were performed 36∼40 hrs after transfection.
Two Ca^2+ imaging systems were used. A bath perfusion system was used for kinetics of activation. Transfected cells in 35 mm recording chambers were washed in Hank's balanced salt solution (HBSS) containing 10 mM HEPES, pH 7.4, and loaded with 3.0 µM Fluo-4 acetoxymethyl ester (invitrogen) for 1.0 hr at 37°C. The dye-loaded cells were subjected to Ca^2+ imaging. Taste solutions diluted in HBSS were applied sequentially to the cells for 30 s with a peristaltic pump at a flow rate of 1.5 ml/min, and fluorescence images were obtained using a S Fluor ×20/0.75 objective lens (Nikon) via a cooled-CCD camera (C6790, Hamamatsu Photonics) fitted to a TE300 microscope (Nikon). Acquisition and analysis of these fluorescence images used AquaCosmos software (v. 1.3, Hamamatsu Photonics). A 3 min interval was left between each tastant application to ensure that the cells were not desensitized as a result of the previous application of tastants. Responses were measured from 30 individual responding cells. […] Isoproterenol (ISO, 10 µM) was used as positive control, which stimulates endogenous β-adrenergic receptors, providing that the Gα16-dependent signal transduction cascade was functional.

N[C@@H](CCC(=O)O)C(=O)[O-].[Na+] [MSG, monosodium glutamate]
activation (Ca2+ mobilization) of transfected cells: elicited transient intracellular calcium increases
